14 molecules from patent US20240024488A1, “COMPOUNDS AND USES THEREOF” (Foghorn Therapeutics Inc., priority 2020, published 2024) can be followed below.

Molecules are shown by their SMILES.

One experiment concerns the target T1, HiBit-BRM fusion protein (Homo sapiens, UniProt P51531).
T1 construct: expressed in transfected cells
Briefly: HiBiT-BRM cell-based degradation assay (Nano-Glo HiBiT Lytic Detection, 24 h). To be noted: HeLa cell line expressing HiBiT-BRM; for DC50: read-out: BRM HiBit Degradation IC50. In short, it runs like this:
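Percent BRM loss was derived from HiBiT luminescence relative to DMSO-treated cells and cells given 2 μM of a known BRM/BRG1 degrader. Treatment lasted 24 h in HiBiT-BRM HeLa cells, with a top final concentration of 30 μM.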
A general note: With HiBiT, luminescence reflects the tagged protein that the partner subunit can reach.

In experiment [1] the target is T2, HiBit-BRG1 fusion protein (Homo sapiens, UniProt P51532).
T2 construct: expressed in transfected cells
Kind of experiment: HiBiT-BRG1 cell-based degradation assay (Nano-Glo HiBiT Lytic Detection, 24 h). Particulars: HeLa cell line expressing HiBit-BRG1 and LgBit; for Dmax: read-out: BRG1 HiBit Degradation Maximum (%); for DC50: read-out: BRMG1 HiBit Degradation IC50. The method, boiled down:
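Percent degradation derived from lytic HiBiT signal, normalized to DMSO-treated cells and to cells given 2 μM of a known BRM/BRG1 degrader. The HeLa line stably expressed HiBit-BRG1 and LgBit; treatment lasted 24 h at 5000 cells per well.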

T2 sequence (P51532 whole entry, the tested form may be a part): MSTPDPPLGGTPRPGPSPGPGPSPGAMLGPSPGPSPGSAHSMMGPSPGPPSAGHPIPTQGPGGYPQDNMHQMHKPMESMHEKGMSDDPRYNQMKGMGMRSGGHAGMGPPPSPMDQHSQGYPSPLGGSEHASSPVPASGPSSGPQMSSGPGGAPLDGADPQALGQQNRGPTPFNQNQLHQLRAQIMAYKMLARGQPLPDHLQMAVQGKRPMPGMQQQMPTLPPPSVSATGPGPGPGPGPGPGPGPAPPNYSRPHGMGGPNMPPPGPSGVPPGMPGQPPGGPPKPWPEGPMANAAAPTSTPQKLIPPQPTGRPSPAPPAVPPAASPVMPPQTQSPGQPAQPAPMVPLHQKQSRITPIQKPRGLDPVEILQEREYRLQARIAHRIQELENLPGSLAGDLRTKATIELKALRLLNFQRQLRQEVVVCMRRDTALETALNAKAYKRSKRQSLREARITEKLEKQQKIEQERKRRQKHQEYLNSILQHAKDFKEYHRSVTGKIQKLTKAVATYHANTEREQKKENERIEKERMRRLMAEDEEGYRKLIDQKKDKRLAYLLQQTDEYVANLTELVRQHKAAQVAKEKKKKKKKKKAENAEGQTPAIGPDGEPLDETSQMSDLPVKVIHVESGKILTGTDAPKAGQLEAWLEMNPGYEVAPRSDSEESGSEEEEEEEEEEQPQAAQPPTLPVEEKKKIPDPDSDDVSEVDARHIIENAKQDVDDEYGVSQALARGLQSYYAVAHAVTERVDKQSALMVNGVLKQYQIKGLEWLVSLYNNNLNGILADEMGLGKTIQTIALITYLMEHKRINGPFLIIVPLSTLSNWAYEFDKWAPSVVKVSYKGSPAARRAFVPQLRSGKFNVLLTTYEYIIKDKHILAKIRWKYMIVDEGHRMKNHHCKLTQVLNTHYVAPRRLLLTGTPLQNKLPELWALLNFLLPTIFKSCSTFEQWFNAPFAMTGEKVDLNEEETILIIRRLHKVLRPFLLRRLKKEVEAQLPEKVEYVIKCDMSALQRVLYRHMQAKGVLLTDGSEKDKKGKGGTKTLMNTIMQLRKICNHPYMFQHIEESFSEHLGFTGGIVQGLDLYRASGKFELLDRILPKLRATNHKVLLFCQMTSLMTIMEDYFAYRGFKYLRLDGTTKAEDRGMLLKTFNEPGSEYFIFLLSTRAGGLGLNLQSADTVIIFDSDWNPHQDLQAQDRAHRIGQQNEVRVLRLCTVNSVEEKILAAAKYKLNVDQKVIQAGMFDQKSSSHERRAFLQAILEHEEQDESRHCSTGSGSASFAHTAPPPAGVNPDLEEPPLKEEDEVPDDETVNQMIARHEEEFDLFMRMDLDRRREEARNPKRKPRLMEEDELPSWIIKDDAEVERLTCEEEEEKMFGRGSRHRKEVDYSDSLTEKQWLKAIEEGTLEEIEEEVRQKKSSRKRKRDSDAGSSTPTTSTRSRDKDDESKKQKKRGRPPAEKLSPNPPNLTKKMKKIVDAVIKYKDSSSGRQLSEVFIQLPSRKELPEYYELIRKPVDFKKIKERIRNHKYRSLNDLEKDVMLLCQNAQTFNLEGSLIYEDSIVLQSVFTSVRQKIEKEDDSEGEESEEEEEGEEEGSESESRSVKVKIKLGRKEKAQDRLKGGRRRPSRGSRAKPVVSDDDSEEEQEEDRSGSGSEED
T1 sequence (P51531 whole entry, the tested form may be a part): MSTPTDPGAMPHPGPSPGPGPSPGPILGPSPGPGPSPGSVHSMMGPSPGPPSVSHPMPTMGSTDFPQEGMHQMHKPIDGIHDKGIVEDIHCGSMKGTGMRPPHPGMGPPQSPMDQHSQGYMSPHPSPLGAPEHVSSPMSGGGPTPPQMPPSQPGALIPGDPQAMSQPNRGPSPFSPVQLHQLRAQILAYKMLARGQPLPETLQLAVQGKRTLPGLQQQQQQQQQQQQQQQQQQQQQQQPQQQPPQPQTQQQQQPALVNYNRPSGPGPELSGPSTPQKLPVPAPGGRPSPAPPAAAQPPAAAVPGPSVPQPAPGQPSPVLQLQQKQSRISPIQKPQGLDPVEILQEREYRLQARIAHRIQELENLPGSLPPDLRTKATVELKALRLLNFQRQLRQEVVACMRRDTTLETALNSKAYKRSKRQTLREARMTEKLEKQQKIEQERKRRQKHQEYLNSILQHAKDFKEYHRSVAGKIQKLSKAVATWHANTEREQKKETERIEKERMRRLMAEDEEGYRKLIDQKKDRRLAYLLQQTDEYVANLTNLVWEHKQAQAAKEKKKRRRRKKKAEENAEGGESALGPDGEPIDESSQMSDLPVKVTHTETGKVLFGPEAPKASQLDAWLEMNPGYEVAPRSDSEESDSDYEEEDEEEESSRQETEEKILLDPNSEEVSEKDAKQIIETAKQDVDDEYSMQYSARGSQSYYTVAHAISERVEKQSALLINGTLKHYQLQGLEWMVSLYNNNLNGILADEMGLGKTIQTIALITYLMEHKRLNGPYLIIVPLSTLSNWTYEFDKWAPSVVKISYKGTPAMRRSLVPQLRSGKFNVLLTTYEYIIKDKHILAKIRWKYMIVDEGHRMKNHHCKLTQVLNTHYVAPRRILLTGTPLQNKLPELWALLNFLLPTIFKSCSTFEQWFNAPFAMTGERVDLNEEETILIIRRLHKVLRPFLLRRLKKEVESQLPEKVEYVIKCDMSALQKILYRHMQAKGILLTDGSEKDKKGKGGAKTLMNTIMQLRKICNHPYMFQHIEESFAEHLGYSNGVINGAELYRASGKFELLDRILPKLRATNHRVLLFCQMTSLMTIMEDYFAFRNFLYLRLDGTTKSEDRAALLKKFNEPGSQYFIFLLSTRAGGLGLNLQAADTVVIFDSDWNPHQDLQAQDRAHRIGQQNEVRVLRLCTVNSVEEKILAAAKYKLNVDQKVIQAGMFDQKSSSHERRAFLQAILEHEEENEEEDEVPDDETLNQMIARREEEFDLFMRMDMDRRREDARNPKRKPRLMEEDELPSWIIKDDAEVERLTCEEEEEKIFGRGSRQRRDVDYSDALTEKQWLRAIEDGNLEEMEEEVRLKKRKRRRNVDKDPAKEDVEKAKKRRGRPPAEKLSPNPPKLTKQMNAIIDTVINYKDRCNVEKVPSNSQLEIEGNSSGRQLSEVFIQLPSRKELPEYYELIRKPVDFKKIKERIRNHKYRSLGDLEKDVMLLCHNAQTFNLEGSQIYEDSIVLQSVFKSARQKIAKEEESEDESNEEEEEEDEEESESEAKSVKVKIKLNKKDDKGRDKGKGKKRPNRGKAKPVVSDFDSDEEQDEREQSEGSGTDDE

For `Cc1ncsc1-c1ccc(CNC(=O)[C@@H]2C[C@@H](O)CN2C(=O)[C@@H](NC(=O)CCCCCCCCCCCCC(=O)N2CC(c3c[nH]c4nnc(-c5ccccc5O)cc34)C2)C(C)(C)C)cc1` [Compound 44, (2S,4R)-4-hydroxy-1-((S)-2-(14-(3-(3-(2-hydroxyphenyl)-7H-pyrrolo[2,3-c]pyridazin-5-yl)azetidin-1-yl)-14-oxotetradecanamido)-3,3-dimethylbutanoyl)-N-(4-(4-methylthiazol-5-yl)benzyl)pyrrolidine-2-carboxamide], the “BRM HiBit Degradation Maximum (%)” value at HiBit-BRM fusion protein was “C (“C” indicates maximum degradation < 50%)”. In addition, the Dmax in experiment [1] was under 50%.
`Cc1ncsc1-c1ccc([C@H](C)NC(=O)[C@@H]2C[C@@H](O)CN2C(=O)[C@@H](c2cc(OCCN3CC[C@@H](c4c[nH]c5nnc(-c6ccccc6O)cc45)C3)no2)C(C)C)cc1` (racemic) [Compound 262, (2S,4R)-4-hydroxy-1-((R)-2-(3-(2-((S)-3-(3-(2-hydroxyphenyl)-7H-pyrrolo[2,3-c]pyridazin-5-yl)pyrrolidin-1-yl)ethoxy)isoxazol-5-yl)-3-methylbutanoyl)-N-((S)-1-(4-(4-methylthiazol-5-yl)phenyl)ethyl)pyrrolidine-2-carboxamide]: on HiBit-BRM fusion protein, the “BRM HiBit Degradation Maximum (%)” value is listed as “B (“B” indicates maximum degradation ≥ 50%)” and the DC50 was over 10 nM. In addition, the Dmax in experiment [1] is under 50%.
Regarding `Cc1ncsc1-c1ccc([C@H](C)NC(=O)[C@@H]2C[C@@H](O)CN2C(=O)[C@H](c2cc(OCCN3CC(c4cc5cc(-c6ccccc6O)nnc5[nH]4)C3)no2)C(C)C)cn1` (single isomer, unassigned) [Compound 218], the “BRM HiBit Degradation Maximum (%)” value at HiBit-BRM fusion protein is “C (“C” indicates maximum degradation < 50%)”. Also, in experiment [1], the Dmax is under 50%.
For the molecule `Cc1ncsc1-c1ccc([C@H](C)NC(=O)[C@@H]2C[C@@H](O)CN2C(=O)[C@H](c2cc([C@H]3CC[C@@H](c4cnc(N5CCC(c6c[nH]c7nnc(-c8ccccc8O)cc67)CC5)nc4)CC3)no2)C(C)C)cc1` [Compound 309, (2S,4R)-4-hydroxy-N-[(1S)-1-[4-(4-methyl-1,3-thiazol-5-yl)phenyl]ethyl]-1-[(2S)-3-methyl-2-{3-[(1s,4s)-4-(2-{4-[3-(2-hydroxyphenyl)-7H-pyrrolo[2,3-c]pyridazin-5-yl]piperidin-1-yl}pyrimidin-5-yl)cyclohexyl]-1,2-oxazol-5-yl}butanoyl]pyrrolidine-2-carboxamide], on HiBit-BRM fusion protein, the “BRM HiBit Degradation Maximum (%)” value is “B (“B” indicates maximum degradation ≥ 50%)” and the DC50 is over 100 nM. In addition, in experiment [1], the Dmax was under 50%.
Take `Cc1ncsc1-c1ccc([C@H](C)NC(=O)[C@@H]2C[C@@H](O)CN2C(=O)[C@@H](c2cc(OCCNCC34CC(c5cc6cc(-c7ccccc7O)nnc6[nH]5)(C3)C4)no2)C(C)C)cc1` (racemic) [Compound 213, (2S,4R)-4-hydroxy-1-((R)-2-(3-(2-(((3-(3-(2-hydroxyphenyl)-7H-pyrrolo[2,3-c]pyridazin-6-yl)bicyclo[1.1.1]pentan-1-yl)methyl)amino)ethoxy)isoxazol-5-yl)-3-methylbutanoyl)-N-((S)-1-(4-(4-methylthiazol-5-yl)phenyl)ethyl)pyrrolidine-2-carboxamide]: at HiBit-BRM fusion protein, the “BRM HiBit Degradation Maximum (%)” value is “A (“A” indicates maximum degradation ≥ 75%)” and the DC50 is over 10 nM. Besides, in experiment [1], the Dmax is over 75% and the DC50 was over 100 nM.
Turning to `Cc1ncsc1-c1ccc([C@H](C)NC(=O)[C@@H]2C[C@@H](O)CN2C(=O)[C@@H](c2cc(OCCN3CCC[C@@H]3c3c[nH]c4nnc(-c5ccccc5O)cc34)no2)C(C)C)cc1` (single isomer, unassigned) [Compound 228], the “BRM HiBit Degradation Maximum (%)” value at HiBit-BRM fusion protein is listed as “C (“C” indicates maximum degradation < 50%)”. Moreover, the Dmax in experiment [1] is under 50%.
Take `Cc1ncsc1-c1ccc(CNC(=O)[C@@H]2C[C@@H](O)CN2C(=O)[C@@H](NC(=O)CCCC(=O)NC23CC(c4cc5cc(-c6ccccc6O)nnc5[nH]4)(C2)C3)C(C)(C)C)cc1` (racemic) [Compound 301, N1-((S)-1-((2S,4R)-4-hydroxy-2-((4-(4-methylthiazol-5-yl)benzyl)carbamoyl)pyrrolidin-1-yl)-3,3-dimethyl-1-oxobutan-2-yl)-N5-(3-(3-(2-hydroxyphenyl)-7H-pyrrolo[2,3-c]pyridazin-6-yl)bicyclo[1.1.1]pentan-1-yl)glutaramide]: at HiBit-BRM fusion protein, the “BRM HiBit Degradation Maximum (%)” value is “B (“B” indicates maximum degradation ≥ 50%)” and the DC50 was over 1000 nM. Besides, the Dmax in experiment [1] was under 50%.
For `Cc1ncsc1-c1ccc([C@H](C)NC(=O)[C@@H]2C[C@@H](O)CN2C(=O)[C@@H](c2cc(N3CCC(N4CCc5[nH]c6nnc(-c7ccccc7O)cc6c5C4)CC3)no2)C(C)C)cc1` (racemic) [Compound 183, (2S,4R)-4-hydroxy-1-((R)-2-(3-(4-(3-(2-hydroxyphenyl)-5,7,8,9-tetrahydro-6H-pyrido[3′,4′:4,5]pyrrolo[2,3-c]pyridazin-6-yl)piperidin-1-yl)isoxazol-5-yl)-3-methylbutanoyl)-N-((S)-1-(4-(4-methylthiazol-5-yl)phenyl)ethyl)pyrrolidine-2-carboxamide] the same measures were “A (“A” indicates maximum degradation ≥ 75%)”, over 100 nM and under 50%.
For `Cc1ncsc1-c1ccc(CNC(=O)[C@@H]2C[C@@H](O)CN2C(=O)[C@@H](NC(=O)[C@H]2CC[C@@H](c3cnc(N4CCC(c5cc6cc(-c7ccccc7O)nnc6[nH]5)CC4)nc3)CC2)C(C)(C)C)cc1` (racemic) [Compound 94, (2S,4R)-4-hydroxy-1-((S)-2-((1s,4R)-4-(2-(4-(3-(2-hydroxyphenyl)-7H-pyrrolo[2,3-c]pyridazin-6-yl)piperidin-1-yl)pyrimidin-5-yl)cyclohexane-1-carboxamido)-3,3-dimethylbutanoyl)-N-(4-(4-methylthiazol-5-yl)benzyl)pyrrolidine-2-carboxamide] the same measures were “A (“A” indicates maximum degradation ≥ 75%)”, over 10 nM and under 50%.
As to `Cc1ncsc1-c1ccc([C@H](C)NC(=O)[C@@H]2C[C@@H](O)CN2C(=O)[C@@H](c2cc(N3CCC(CN4CC(c5cc6cc(-c7ccccc7O)nnc6[nH]5)C4)CC3)no2)C(C)C)cc1` (racemic) [Compound 247, (2S,4R)-4-hydroxy-1-((R)-2-(3-(4-((3-(3-(2-hydroxyphenyl)-7H-pyrrolo[2,3-c]pyridazin-6-yl)azetidin-1-yl)methyl)piperidin-1-yl)isoxazol-5-yl)-3-methylbutanoyl)-N-((S)-1-(4-(4-methylthiazol-5-yl)phenyl)ethyl)pyrrolidine-2-carboxamide], at HiBit-BRM fusion protein, the “BRM HiBit Degradation Maximum (%)” value is listed as “A (“A” indicates maximum degradation ≥ 75%)” and the DC50 is over 10 nM. Besides, in experiment [1], the Dmax was over 50% and the DC50 is over 1000 nM.
Turning to `Cc1ncsc1-c1ccc([C@H](C)NC(=O)[C@@H]2C[C@@H](O)CN2C(=O)[C@@H](c2cc(OCCN(C)Cc3cc4cc(-c5ccccc5O)nnc4[nH]3)no2)C(C)C)cc1` (racemic) [Compound 222, (2S,4R)-4-hydroxy-1-((R)-2-(3-(2-(((3-(2-hydroxyphenyl)-7H-pyrrolo[2,3-c]pyridazin-6-yl)methyl)(methyl)amino)ethoxy)isoxazol-5-yl)-3-methylbutanoyl)-N-((S)-1-(4-(4-methylthiazol-5-yl)phenyl)ethyl)pyrrolidine-2-carboxamide], at HiBit-BRM fusion protein, the “BRM HiBit Degradation Maximum (%)” value is reported as “B (“B” indicates maximum degradation ≥ 50%)” and the DC50 was over 10 nM. Also, in experiment [1], the Dmax is under 50%.
The matching figures for `Cc1ncsc1-c1ccc(CNC(=O)[C@@H]2C[C@@H](O)CN2C(=O)[C@@H](NC(=O)CCCCCCCCC(=O)N2CC(c3cc4cc(-c5ccccc5O)nnc4[nH]3)C2)C(C)(C)C)cc1` [Compound 2, (2S,4R)-4-hydroxy-1-((S)-2-(10-(3-(3-(2-hydroxyphenyl)-7H-pyrrolo[2,3-c]pyridazin-6-yl)azetidin-1-yl)-10-oxodecanamido)-3,3-dimethylbutanoyl)-N-(4-(4-methylthiazol-5-yl)benzyl)pyrrolidine-2-carboxamide]: “A (“A” indicates maximum degradation ≥ 75%)”, over 100 nM and under 50%.
For `Cc1ncsc1-c1ccc([C@H](C)NC(=O)[C@@H]2C[C@@H](O)CN2C(=O)[C@@H](c2cc(OCCN3CC(c4[nH]c5nnc(-c6ccccc6O)cc5c4C)C3)no2)C(C)C)cc1` (racemic) [Compound 307, (2S,4R)-4-hydroxy-1-((R)-2-(3-(2-(3-(3-(2-hydroxyphenyl)-5-methyl-7H-pyrrolo[2,3-c]pyridazin-6-yl)azetidin-1-yl)ethoxy)isoxazol-5-yl)-3-methylbutanoyl)-N-((S)-1-(4-(4-methylthiazol-5-yl)phenyl)ethyl)pyrrolidine-2-carboxamide], at HiBit-BRM fusion protein, the “BRM HiBit Degradation Maximum (%)” value is reported as “A (“A” indicates maximum degradation ≥ 75%)” and the DC50 was under 10 nM. In experiment [1], the Dmax was over 75% and the DC50 is over 10 nM.
For `Cc1ncsc1-c1ccc([C@H](C)NC(=O)[C@@H]2C[C@@H](O)CN2C(=O)[C@@H](c2cc(C3CN(C(=O)c4cc5cc(-c6ccccc6O)nnc5[nH]4)C3)no2)C(C)C)cc1` (single isomer, unassigned) [Compound 178], the “BRM HiBit Degradation Maximum (%)” value at HiBit-BRM fusion protein was “C (“C” indicates maximum degradation < 50%)”. For the same molecule, the Dmax in experiment [1] was under 50%.
